Source: paper PMC5603603, “Linoleic and palmitoleic acid block streptokinase-mediated plasminogen activation and reduce severity of invasive group A streptococcal infection” (Scientific Reports, 2017)
Values joined by “and” are separate entries in the source; they are usually repeats but may differ in a detail not shown here. Equal entries are not always repeated.

How the values were obtained:
[1] = target: cluster 2a type streptokinase (Streptococcus pyogenes, UniProt A0A288R465); set-up: species or system group A streptococcal strain A614; conditions: cell-based; for fold lower IC50 compared to TXA and EACA: streptokinase cluster type 2a
Method: The pellet from a mid-log phase culture of the strain A614 (cluster 2a type) or A314 (cluster 2b type) was washed twice with PBS and bacteria were adjusted to an OD600 of 1.0 in HEPES-buffer (10 mM HEPES, 150 mM NaCl, 0.01% Tween 20, pH 7.4). 90 µl of bacterial cells, plasminogen (final concentration 6.7 µg/ml per well) and fibrinogen (final concentration 1 µM per well) were pre-mixed. Then inhibitory compounds (LA, PA, oleic, myristic, stearic, palmitic, arachidonic, arachidic, linolenic acid, TXA or EACA) were added. Stocks of LA and PA were prepared in methanol and then diluted in PBS. Stocks of arachidic, oleic, arachidonic, myristic, palmitic, stearic and linolenic acid were prepared in 60% DMSO/PBS and then diluted in PBS. The untreated control received the same amount of PBS as in case of TXA and EACA as control or the same amount of methanol diluted in PBS as in case of LA and PA, respectively, or the same amount of DMSO diluted in PBS as in case of the other commercially available fatty acids. Then 50 µl of the respective supernatant (supernatant from the strain A614 if cells from A614 were used, supernatant from the strain A314 were used in case of cells from the GAS strain A314) and 3.75 µl 10 mM S-2251 (Chromogenix) were added. The assay was incubated at 37 °C and measured at the beginning of the reaction and then every hour at 405 nm after 3 sec of shaking on a Tecan Sunrise ELISAReader using Magellan software. Each experiment was repeated three times. IC50 values were calculated using Microsoft® Excel software.

[2] = system: recombinant cluster 2a type streptokinase; experiment: Plasminogen assay using recombinant streptokinase; assay type: biochemical, group A streptococcal strain A614; conditions: 40 µg/ml
Method: An overnight culture of the strain A614 (in THY medium) was centrifuged at 5000 rpm for 10 min. The supernatant was discarded and the pellet was resuspended in TE-buffer (from DNeasy blood and tissue kit, Qiagen) containing 10% DNase-free RNase (10 µg/ml). The suspension was transferred to a vial filled with zirconium beads. Bacterial cells were lysed using a fastprep machine (MP Biomedical) twice for 30 sec at 4.0 m/sec. Then AL-buffer (from DNeasy blood and tissue kit, Qiagen) was added and beads were spun down for 30 sec. The lysate was transferred to a new reaction tube and proteinase K was added. The tube was inverted and incubated for 30 min at 56 °C. Then 100% ethanol was added and genomic DNA was isolated according to the protocol of the DNeasy blood and tissue kit (Qiagen). […] Using a gel electrophoresis, the 1500 bp product was detected, cut out and purified using a PCR clean-up, gel extraction kit (Machery-Nagel). […]
75 µl of the recombinant streptokinase (concentration 1 mg/ml) was added to the wells of a 96well plate followed by 69 µl PBS, 5 µl S-2251 (10 mM stock solution, chromogenic substrate for the detection of plasmin, Chromogenix) and 1 µl plasminogen (1 mg/ml stock solution, Biopur or Sigma). […] The absorption was measured at the beginning of the reaction and then every hour at 405 nm after 3 sec of shaking on a Tecan Sunrise ELISA Reader using Magellan software. […]

S. pyogenes strain A666 = experiment: Clotting assay, escape of streptococci from clot (cluster 2b type streptokinase); assay type: cell-based; conditions: 60 µg/ml, after 4 h, p < 0.05
Method: To assess whether LA and PA influence the entrapment of bacteria within clots, a 50 ml overnight culture (THY medium) of the S. pyogenes strains AP1 or A666 was centrifuged at 4332 × g for 10 min. […] For clot induction, 100 µl citrate plasma, 100 µl of the respective bacterial suspension and 50 µl thrombin-reagent (Haemochrom Diagnostica) were used. […] Then clots were left untreated (treated with sodium citrate buffer only) or were treated with LA or PA (diluted in sodium citrate buffer). For clots formed with S. pyogenes strain A666, a final concentration of 60 µg/ml was used for both, LA and PA. For those formed with S. pyogenes strain AP1, a final concentration of 30 µg/ml was used. 50 µl of the supernatant of each sample were plated onto blood agar plates in serial dilutions at 0, 2 and 4 h after clot induction and incubated at 37 °C overnight. Colonies were counted the following day to assess the number of bacteria which had escaped the clot. […] Two independent experiments were performed. Standard deviations were calculated accordingly. Citrate plasma was obtained from healthy volunteers who gave their informed consent.

Row | SMILES | fold lower IC50 compared to TXA and EACA [1] [fold] | inhibition of plasminogen activation [2] | GAS escaped from the clot compared to the untreated clot (S. pyogenes strain A666) | IC50 ([1]; cluster 2a)
1 | CCCCC/C=C\C/C=C\CCCCCCCC(=O)O [LA, linoleic acid] | 250 | 60–70% | significantly lower amount of GAS escaped | 
2 | CCCCCC/C=C\CCCCCCCC(=O)O [PA, palmitoleic acid] | 250 | 60–70% | significantly lower amount of GAS escaped | 359 µM and 471 µM
